The test system of one data set is aorta mRNA expression. The data set can be described thus: GeneChip analysis of aorta mRNA expression after oral and SC dosing of insulin. It counts as in vivo, Sprague-Dawley rats. The following applies: for Changes in aorta mRNA levels (control groups): component given orally alone. On the procedure:
A total of 60 male Sprague-Dawley rats were fasted for 24 hours and then anesthetized with Thorazine (1.5 mg/kg, im) and Ketamine (44 mg/kg, im). They were then divided into the following 5 treatment groups: • 1. H2O (p.o. 1 mL/kg) • 2. Carrier (p.o., 1 mL/kg; 200 mg/kg) • 3. Insulin (p.o., 1 ml/kg; 0.5 mg/kg) • 4. Insulin and Carrier (p.o., 1 ml/kg; 0.5 mg/kg Insulin and 200 mg/kg 1182) • 5. Insulin (s.c., 0.05 mg/kg) • There were twelve animals per group, with three being sacrificed at 30, 60, 120 and 180 minutes. For serum insulin and blood glucose monitoring, 0.4 mL of blood was drawn from the tail artery. Following euthanasia, an aorta sample was removed and snap-frozen in liquid nitrogen. All animal studies where conducted in accordance with the IACUC approved protocols.
Total RNA was prepared from the frozen tissue sample following the protocol for use of Trizol Reagent (Invitrogen, Inc., Carlsbad, Calif.). The samples were then further cleaned up by use of the Qiagen Midi Kit (Valencia, Calif.). Quality of each RNA sample was assessed using agarose gel electrophoresis and UV absorbance at 260 and 280. Acceptable RNA samples were pooled in equal quantities on a mass basis. This pooled sample was used to prepare cDNA following the protocol provided by Affymetrix. This sample was then used as template in an ii: vitro transcription labeling and amplification reaction using the Enzo BioArray High Yield RNA Transcript Labeling Kit (Affymetrix Inc., Santa Clara, Calif.). 15 μg of labeled transcript was then fragmented and used to prepare a hybridization solution as described in the Affymetrix GeneChip Protocol, Affymetrix, Inc., 2000.
The samples were hybridized to a Test Array and 5′ to 3′ ratios, detection limit, and image quality were assessed to ensure the quality of the labeled sample. Acceptable samples were then hybridized to an Affymetrix Rat U34A array. Washing and staining of these arrays was performed using the standard Affymetrix protocols. Array quality was assessed in the same manner as the Test array. Acceptable samples were analyzed both in the expression patterns seen across the group as well as pair wise in the following manner:
Fold change were determined by the Affymetrix Microarray Suite Software package and values below 2 fold were considered insignificant. This software package analysis compares the individual members of each probe set to determine a Difference Call. In this report all calculated fold changes are used in the figures, however in the results and discussion only those fold changes that received an Increasing or Decreasing call by the Affymetrix software were used to draw conclusions.

For another data set, the system named is plasma C-peptide. In words: Example 5: plasma C-peptide. It counts as in vivo, human. On the procedure: For insulin/4-CNAB treatment Groups 2 and 3, subjects' blood samples (1 drop per sample) were drawn at 15 minutes before dosing, and at 5, 10, 15, 20, 25, 30, 35, 40, and 50 minutes and at 1, 1.25, 1.5, 1.75, 2, 2.5, 3, 4, 6, 8 and 12 hours post-dose (21 samples per treatment for Insulin/4-CNAB dosing groups) for plasma glucose, insulin and C-peptide measurements. For the 4-CNAB alone treatment Group 1, blood samples were collected before dosing (−15 minutes), and at 30 minutes and at 2 hr post-dose for blood glucose measurements. For the insulin alone control group (minimum 3 subjects), blood samples (3 mL in sodium heparin tube) were drawn at 15 minutes before dosing, and at 10, 20, 30, 40, 50 minutes and 1, 1.25, 2, 2.5, 3 and 6 hr post-dose (12 samples per treatment). The blood samples for glucose were assayed in real time using a Glucometer®. These measurements were used for detection of onset of hypoglycemia, so rescue action could be taken where necessary. […]
Plasma C-peptide was measured using a DELFIA C-peptide kit, based on a solid phase, two-site fluoroimmunometric assay, which used the direct sandwich technique in which two monoclonal antibodies are directed against antigenic determinants on the C-peptide molecule. […] The fluorescence is directly proportional to the concentration of C-peptide in the sample.

Another data set has as its system plasma glucose. The data set can be described thus: Example 5: plasma glucose pharmacodynamics. The class given is in vivo, human. The procedure: For insulin/4-CNAB treatment Groups 2 and 3, subjects' blood samples (1 drop per sample) were drawn at 15 minutes before dosing, and at 5, 10, 15, 20, 25, 30, 35, 40, and 50 minutes and at 1, 1.25, 1.5, 1.75, 2, 2.5, 3, 4, 6, 8 and 12 hours post-dose (21 samples per treatment for Insulin/4-CNAB dosing groups) for plasma glucose, insulin and C-peptide measurements. For the 4-CNAB alone treatment Group 1, blood samples were collected before dosing (−15 minutes), and at 30 minutes and at 2 hr post-dose for blood glucose measurements. For the insulin alone control group (minimum 3 subjects), blood samples (3 mL in sodium heparin tube) were drawn at 15 minutes before dosing, and at 10, 20, 30, 40, 50 minutes and 1, 1.25, 2, 2.5, 3 and 6 hr post-dose (12 samples per treatment). The blood samples for glucose were assayed in real time using a Glucometer®. These measurements were used for detection of onset of hypoglycemia, so rescue action could be taken where necessary. Plasma glucose, insulin and C-peptide measurements were done according to standard procedures.
Plasma glucose was measured based on a timed-endpoint method using a BECKMAN Synchron CX system that mixes exact proportions of reagents that catalyse the phosphorylation of glucose. The Synchron CX measures changes in the absorbance spectrum at 340 nm at a fixed time interval. The change in absorbance is directly proportional to the concentration of glucose in the sample.
On the basis of plasma concentrations of glucose, PD analysis was performed using WinNonlin™ Professional version 3.2. The profiles for glucose, glucose change from baseline and glucose percentage change from baseline were evaluated up to 6 hours as food was given 6 hours following insulin treatment. The following PD parameters were computed for plasma glucose concentration: AURC(0-2), AURC(0-t) (total response), Rmax (minimum value), tRmax and concentrations (R^b) and corresponding time (t^b) immediately prior to intervention for hypoglycemia. The following PD parameters were computed for plasma glucose concentration change from baseline: AUEC(0-2), AUEC(0-t) (baseline subtracted), Emax (baseline subtracted), tEmax (obtained without interpolation), percent change from baseline and concentrations (E^c) and corresponding time (t^c) immediately prior to intervention for hypoglycemia.
Similarly, in order to take into account baseline levels of glucose, PD analysis was conducted based on the percent change (decrease or increase) in glucose concentration from the baseline, where baseline was taken as the pre-dose concentration levels, rather than absolute values only. The glucose concentration percent change from baseline values were also calculated, and profiles were tabulated and plotted. Thus, […]

Data set [1] is described as follows: Example 5: C-peptide corrected insulin pharmacokinetics. The following applies: in vivo; for C-peptide corrected insulin AUC(0-2) / C-peptide corrected insulin AUC(0-6) / C-peptide corrected insulin tmax, median: human. Set-up: species or system human. On the procedure:
On the basis of plasma concentrations of 4-CNAB and insulin, PK analysis was performed using non-compartmental PK methods as implemented in WinNonlin™ Professional version 3.2. The profiles for insulin and C-peptide corrected insulin were evaluated up to 6 hours as food was given 6 hours following insulin treatment. The following parameters were derived for 4-CNAB: Cmax, tmax, AUC(0-t), AUC(0-inf), AUC% Extrap, Kel, t1/2, CL/F, Vd/F, MRT(0-t), MRT(0-inf) and Frel. The following parameters were derived for insulin and C-peptide corrected insulin: Cmax, tmax, AUC(0-2), AUC(0-6), AUC(0-t) and concentrations (C^b) and corresponding time (t^b) immediately prior to intervention for hypoglycemia.
For the PK analysis of insulin, analysis was conducted for both measured insulin and C-peptide corrected insulin concentrations. This was done using concentrations of the precursor C-peptide and the following equation: Corrected Insulin Concentration=Insulin Concentration−(Baseline Ratio×C-peptide) where

Where [2] appears, read: 150 Units oral insulin alone, all subjects.
Where [3] appears, read: 150 Units oral insulin alone, non-hypoglycemic subjects.
The mark [4] stands for this setting: 10 Units SC, carrier 0, unaudited data.
Where [5] appears, read: 10 Units SC, hypoglycemic subjects.

This is an account of results in US7429564B2, “Oral insulin therapy” (Emisphere Technologies, Inc., priority 2002, dated 2008).

Several values for one entry are separate records, joined by “and”; a condition that tells them apart may be missing. Equal values may be shown once. Marks after values point to notes of the source that are not given here.

As for “oral insulin alone: recombinant human zinc insulin given orally without delivery agent”, in the data set on aorta mRNA expression, the “Changes in aorta mRNA levels (control groups)” value is “no consistent and significant changes in mRNA levels in the aorta”. Moreover, in the data set on plasma C-peptide (150 Units oral insulin alone), the “Change in C-peptide concentrations from baseline” value is “little change in C-peptide concentrations from baseline”. The “Change in glucose concentrations” value in the data set with plasma glucose (150 Units oral insulin alone) is given as “only a slight change in glucose concentrations”. In the data set on plasma glucose (setting [2]), the “Glucose change AUEC(0-2)” value was -0.63 ± 0.77 mmol·h/L; the “Glucose change from baseline Emax” value is -0.79 ± 0.43 mmol/L; the “Glucose change tEmax, median” value amounted to 6.00 h; the “Maximum % change of glucose from baseline up to 6 h” value (from here on “Maximum % change of glucose”) is given as −12.41 ± 6.48%. Moreover, in the data set on plasma glucose (setting [2]), the “Plasma glucose AURC(0-2)” value turned out to be 11.06 ± 0.69 mmol·h/L; the “Plasma glucose AURC(0-6)” value was 32.15 ± 1.41 mmol·h/L; the “Plasma glucose Rmax (minimum concentration)” value (shortened to “Plasma glucose Rmax”) is given as 5.08 ± 0.20 mmol/L; the “Plasma glucose tRmax, median” value is given as 6.00 h. In addition, in the data set on plasma glucose (150 Units oral insulin alone, all subjects, AUEC(0-t) for 6 h sampling schedule), the “Glucose change AUEC(0-6)” value was −3.01 ± 2.44^d mmol · h/L. Moreover, in the data set on plasma glucose (setting [3]), the “Glucose change AUEC(0-2)” value is -0.63 ± 0.77 mmol·h/L; the “Glucose change from baseline Emax” value is -0.79 ± 0.43 mmol/L; the “Glucose change tEmax, median” value came to 6.00 h; the “Maximum % change of glucose” value is −12.41 ± 6.48%. For the same compound, in the data set with plasma glucose (setting [3]), the “Plasma glucose AURC(0-2)” value was determined as 11.06 ± 0.69 mmol·h/L; the “Plasma glucose Rmax” value worked out at 5.08 ± 0.20 mmol/L; the “Plasma glucose tRmax, median” value came out at 6.00 h. The “Glucose change AUEC(0-6)” value in the data set on plasma glucose (150 Units oral insulin alone, non-hypoglycemic subjects, AUEC(0-t) for 6 h sampling schedule) is −3.01 ± 2.44^d mmol · h/L. In the data set on plasma glucose (150 Units oral insulin alone, non-hypoglycemic subjects, AURC(0-t) for 6 h sampling schedule), the “Plasma glucose AURC(0-6)” value is 32.15 ± 1.41^c mmol · h/L. For the same compound, in data set [1] (po), the “C-peptide corrected insulin AUC(0-2)” value is 10.8 ± 16.6 pmol·h/L; the “C-peptide corrected insulin AUC(0-6)” value worked out at 21.5 ± 42.0 pmol·h/L; the “C-peptide corrected insulin tmax, median” value was found to be 2.00 h.

Turning to “SC insulin: human regular insulin injected subcutaneously (Humulin R or equivalent; Calbiochem insulin in the rat studies)”, in the data set with aorta mRNA expression (180 minutes), the “ICAM-1 mRNA” value is “increased” and the “c-myc mRNA” value is given as “significant increase”. The “IL-6 mRNA” value in the data set with aorta mRNA expression (vs sham) is “significant increase”. For the same compound, the “% Max C-peptide Reduction” value in the data set on plasma C-peptide (setting [4]) was 54.3 ± 9.8%. The “% Max Glucose Reduction” value with plasma glucose (setting [4]) is 32.3 ± 9.6%. Besides, in the data set with plasma glucose (10 Units SC, all subjects), the “Glucose change AUEC(0-2)” value is -0.71 ± 1.32 mmol·h/L; the “Glucose change AUEC(0-6)” value was -1.40 ± 4.41 mmol·h/L; the “Glucose change from baseline Emax” value is -2.28 ± 0.5 mmol/L and -2.28 ± 0.40 mmol/L; the “Glucose change tEmax, median” value is 1.00 h. Moreover, in the data set on plasma glucose (10 Units SC, all subjects), the “Maximum % change of glucose” value is recorded as −39.82±8.26%, the “Plasma glucose AURC(0-2)” value worked out at 10.40 ± 1.36 mmol·h/L, the “Plasma glucose AURC(0-6)” value came to 32.02 ± 4.66 mmol·h/L and the “Plasma glucose Rmax” value amounted to 3.31 ± 0.42 mmol/L. Further, the “Plasma glucose tRmax, median” value in the data set on plasma glucose (10 Units SC, all subjects) was found to be 1.00 h. In the data set on plasma glucose (setting [5]), the “Glucose change AUEC(0-6)” value came to 1.00 mmol·h/L; the “Glucose change E^c (immediately prior to recovery from hypoglycemia)” value was -0.71 ± 1.32 mmol/L; the “Glucose change from baseline Emax” value was -2.28 ± 0.40 mmol/L; the “Glucose change tEmax, median” value is 1.00 h. Further, in the data set with plasma glucose (setting [5]), the “Maximum % change of glucose” value is reported as −39.82 ± 8.26%, the “Plasma glucose AURC(0-2)” value came out at 10.40 ± 1.36 mmol·h/L, the “Plasma glucose AURC(0-6)” value came out at 32.02 ± 4.66 mmol·h/L and the “Plasma glucose R^b (immediately prior to recovery from hypoglycemia)” value was determined as 3.45 ± 0.41 mmol/L. Further, in the data set with plasma glucose (setting [5]), the “Plasma glucose Rmax” value amounted to 3.31 ± 0.42 mmol/L; the “Plasma glucose tRmax, median” value was determined as 1.00 h; the “Plasma glucose t^b, median” value turned out to be 1.00 h. Moreover, in data set [1] (sc), the “C-peptide corrected insulin AUC(0-2)” value stood at 355.2 ± 170.2 pmol·h/L; the “C-peptide corrected insulin AUC(0-6)” value was determined as 942.8 ± 333.0 pmol·h/L; the “C-peptide corrected insulin tmax, median” value was found to be 1.88 h; the “C-peptide corrected insulin C^b” value was 159.5 ± 75.6 pmol/L. In data set [1] (sc), the “C-peptide corrected insulin t^b, median” value is given as 1.00 h.

In the case of `O=C(O)CCCNC(=O)c1ccc(Cl)cc1O` [4-CNAB, 4-[(4-chloro, 2-hydroxybenzoyl)amino]butanoic acid], the “Changes in aorta mRNA levels (control groups)” value in the data set on aorta mRNA expression was “no consistent and significant changes in mRNA levels in the aorta”. Moreover, the “Effect on plasma glucose levels” value in the data set on plasma glucose (4-CNAB alone, oral) is “no significant effect on plasma glucose levels”.
